Assay results as given in article PMC9652379, “Safety evaluations of a synthetic antimicrobial peptide administered intravenously in rats and dogs” (Scientific Reports, 2022).
Positions of bridges follow the written chain, without caps; N, C: chain ends. Non-standard residues stand in square brackets, D forms with d. Residues, ends and D or L forms follow the SMILES beside them. Chains are numbered I, II in the order given. βAla = NCCC(=O)O

Columns and labels:
Sprague Dawley rats = conditions: rat, in vivo, iv, 15 mg/kg/day
Protocol: Necroscopy and histopathological examinations were performed at the end of treatment and at the end of the recovery period. Macroscopic changes were recorded in the kidneys (pale coloration and a reddened medullary area in almost all males and females from groups on 9 and 15 mg/kg/day) and bladder (distended in a few males of all treated groups). These findings were also recorded at the end of the recovery period affecting all animals dose at 15 mg/kg/day (pale coloration of the kidneys) or one male (distended urinary bladder). […] At the end of the recovery period the mean weight of the spleen (both sexes) and the mean weight of the kidneys and ovaries (females) from animals treated at 15 mg/kg/day were still higher with respect to control group. […] For 15 mg/kg/day group, the changes observed in the kidneys, bone marrow, uterine cervix and vagina were not reversible (see Supplementary Material for images and number of animals affected by these irreversible abnormalities), while the rest of the findings were fully (femorotibial growth plate and duodenum) or partially recovered (heart, ovaries and mammary glands) after 2 weeks of recovery period.
All animals underwent necropsy. Descriptions of all macroscopic abnormalities were recorded. […]

beagle dogs [1] = experiment: Four-week toxicity study in dogs: necroscopy, organ weights, microscopic findings; assay type: in vivo, dog; conditions: for Kidney: degeneration/regeneration, tubules, minimal (incidence): 4-week dosing; for Kidney: regeneration, tubules, minimal (incidence): 4-week recovery period
Protocol: These higher weights were correlated microscopically with minimal tubule degeneration/regeneration and minimal interstitial cell infiltrates. There were no other SET-M33-related organ weight changes (Table 6). There were no organ weight changes at recovery sacrifice, or macroscopic findings at terminal and recovery necroscopy. […] The kidney findings included minimal tubule degeneration/regeneration at 1.5 mg/kg/day and 4 mg/kg/day in males, and at 4.0 mg/kg/day in females, and minimal interstitial cell infiltrate in both sexes at a dose of 4.0 mg/kg/day. Degeneration featured vacuolation, cell sloughing and/or tinctorial change, and regeneration was characterized by increased basophilia, nuclear crowding and/or increased mitoses of cortical tubule epithelial cells. Regenerative changes were typically more pronounced than degenerative changes. SET-M33-related microscopic findings in kidney were correlated with higher kidney weights (absolute and relative to body and brain weight) and elevated BUN and creatinine in both sexes at 4.0 mg/kg/day. […] After the 4-week recovery period, kidney interstitial infiltrates cleared completely and tubule degeneration/regeneration resolved almost completely. At the infusion sites, there was complete recovery from vascular/perivascular inflammation and tunica intima hypertrophy/hyperplasia with partial recovery from vascular thrombi and hypertrophy/hyperplasia of the tunica media. Minimal regeneration of cortical tubule epithelial cells, observed in the kidneys of 1 female at a dose of 4.0 mg/kg/day, was considered to be due to a repair process, and a slight thrombus observed at the infusion site (saphenous vein) of another female was also in line with ongoing repair.
Complete macroscopic examination was performed on all animals, including examination of the external surface and all orifices; the external surfaces of the brain and spinal cord; the organs and tissues of the cranial, thoracic, abdominal and pelvic cavities and neck; and the rest of the carcass for macroscopic morphological abnormalities. Necropsy was performed on up to 3 animals/sex/group after treatment for 4 weeks and on 2 animals/sex/group after a 4-week treatment-free recovery period. Organs and tissues were weighed, preserved and examined microscopically. Prior to weighing, organs were carefully dissected and properly trimmed to remove adipose and other contiguous tissue in a uniform manner. Organs were weighed as soon as possible after dissection in order to avoid drying. Paired organs were weighed together. Eyes, optic nerve and testes were initially placed in Modified Davidson’s solution and then kept in 10% neutral buffered formalin (NBF). Lungs and urinary bladder were infused with 10% NBF prior to immersion in a larger volume of the same fixative. All other tissues were preserved in 10% NBF.

beagle dogs [2] = experiment: Four-week toxicity study with 4-week recovery in dogs: survival, ECG, NOAEL; assay type: in vivo, dog
Protocol: Beagle dogs (5/sex/group) were dosed by intravenous infusion once daily for 1 h with 0 (0.9% sodium chloride for injection), 0.5, 1.5 or 4.0 mg/kg/day SET-M33 for four consecutive weeks. The doses were selected in the dog DRF study (above). The dose of 4 mg/kg/day was selected as the highest dose without macroscopic side effects in the DRF study, and was used to evaluate renal toxicity and its reversibility. The dose of 0.5 mg/kg/day was selected as the lowest dose, about one order of magnitude less than the highest dose. The dose of 1.5 mg/kg/day was selected as an approximately median mid-dose. On completion of 4 weeks of infusion, three animals/sex/group were euthanized and necropsied and the remaining two animals/sex/group were held for a 4-week drug free recovery period after which they were euthanized and necropsied. Blood samples were obtained from all animals on days 1 and 28 for toxicokinetic analysis.
Animals were observed daily for mortality and signs of severe toxic or pharmacological effects. […] Blood obtained via jugular venepuncture from anaesthetized dogs was used to analyse blood, coagulation and clinical chemistry parameters for 5 animals/sex/group pre-test and at termination of dosing and from 2 animals/sex/group at the end of recovery.

## CC[C@H](C)[C@H](NC(=O)[C@H](CCCCN)NC(=O)[C@@H](N)CCCCN)C(=O)N[C@@H](CCCNC(=N)N)C(=O)N[C@H](C(=O)N[C@@H](CCCNC(=N)N)C(=O)N[C@@H](CC(C)C)C(=O)N[C@@H](CO)C(=O)N[C@@H](C)C(=O)NCCCC[C@H](NC(=O)[C@H](C)NC(=O)[C@H](CO)NC(=O)[C@H](CC(C)C)NC(=O)[C@H](CCCNC(=N)N)NC(=O)[C@@H](NC(=O)[C@H](CCCNC(=N)N)NC(=O)[C@@H](NC(=O)[C@H](CCCCN)NC(=O)[C@@H](N)CCCCN)[C@@H](C)CC)C(C)C)C(=O)NCCCC[C@H](NC(=O)[C@H](CCCCNC(=O)[C@H](C)NC(=O)[C@H](CO)NC(=O)[C@H](CC(C)C)NC(=O)[C@H](CCCNC(=N)N)NC(=O)[C@@H](NC(=O)[C@H](CCCNC(=N)N)NC(=O)[C@@H](NC(=O)[C@H](CCCCN)NC(=O)[C@@H](N)CCCCN)[C@@H](C)CC)C(C)C)NC(=O)[C@H](C)NC(=O)[C@H](CO)NC(=O)[C@H](CC(C)C)NC(=O)[C@H](CCCNC(=N)N)NC(=O)[C@@H](NC(=O)[C@H](CCCNC(=N)N)NC(=O)[C@@H](NC(=O)[C@H](CCCCN)NC(=O)[C@@H](N)CCCCN)[C@@H](C)CC)C(C)C)C(=O)NCCC(=O)O)C(C)C [SET-M33] (I: H-KKIRVRLSAKK[βAla]-OH / II: H-KKIRVRLSAK / III: H-KKIRVRLSA / IV: H-KKIRVRLSA; amide I:10-IV:C, I:11-II:C, II:10-III:C (inferred); N-terminus and C-terminus assumed)
Sprague Dawley rats
  cervical and vaginal epithelial atrophy, incidence: 1 out of 5
Beagle dogs [1]; dog, in vivo, 0.5 mg/kg/day
  Infusion site (combined incidence, four sites): haemorrhage, vascular/perivascular, minimal: 1
  Infusion site (combined incidence, four sites): haemorrhage, vascular/perivascular, moderate: 0
  Infusion site (combined incidence, four sites): haemorrhage, vascular/perivascular, slight: 1
  Infusion site (combined incidence, four sites): haemorrhage, vascular/perivascular, total: 2
  Infusion site (combined incidence, four sites): hypertrophy/hyperplasia, tunica intima, minimal: 0
  Infusion site (combined incidence, four sites): hypertrophy/hyperplasia, tunica media, minimal: 0
  Infusion site (combined incidence, four sites): inflammation, vascular/perivascular, moderate: 0
  Infusion site (combined incidence, four sites): thrombus, blood vessels, high: 0
  Infusion site (combined incidence, four sites): thrombus, blood vessels, moderate: 0
  Kidney: infiltrate, interstitium, minimal (incidence): 0
Beagle dogs [1]; dog, in vivo, 1.5 mg/kg/day
  Infusion site (combined incidence, four sites): haemorrhage, vascular/perivascular, slight: 0
  Infusion site (combined incidence, four sites): hypertrophy/hyperplasia, tunica intima, minimal: 0
  Infusion site (combined incidence, four sites): hypertrophy/hyperplasia, tunica media, minimal: 0
  Infusion site (combined incidence, four sites): inflammation, vascular/perivascular, moderate: 0
  Infusion site (combined incidence, four sites): thrombus, blood vessels, high: 0
  Infusion site (combined incidence, four sites): thrombus, blood vessels, minimal: 0
  Infusion site (combined incidence, four sites): thrombus, blood vessels, slight: 0
Beagle dogs [1]; dog, in vivo, 4 mg/kg/day
  Infusion site (combined incidence, four sites): haemorrhage, vascular/perivascular, moderate: 0
  Infusion site (combined incidence, four sites): hypertrophy/hyperplasia, tunica intima, minimal: 0
  Infusion site (combined incidence, four sites): hypertrophy/hyperplasia, tunica intima, slight: 0
  Infusion site (combined incidence, four sites): hypertrophy/hyperplasia, tunica intima, total: 0
  Infusion site (combined incidence, four sites): thrombus, blood vessels, minimal: 0
  Infusion site (combined incidence, four sites): thrombus, blood vessels, moderate: 5
Beagle dogs [1]; female dogs, 0.5 mg/kg/day
  Kidney: degeneration/regeneration, tubules, minimal (incidence): 0
  Kidney: regeneration, tubules, minimal (incidence): 0
Beagle dogs [1]; female dogs, 1.5 mg/kg/day
  Kidney: degeneration/regeneration, tubules, minimal (incidence): 0
  Kidney: regeneration, tubules, minimal (incidence): 0
Beagle dogs [1]; female dogs, 4.0 mg/kg/day
  Kidney: degeneration/regeneration, tubules, minimal (incidence): 2
  Kidney: regeneration, tubules, minimal (incidence): 1
Beagle dogs [1]; male dogs, 0.5 mg/kg/day
  Kidney: degeneration/regeneration, tubules, minimal (incidence): 2
  Kidney: regeneration, tubules, minimal (incidence): 0
Beagle dogs [1]; male dogs, 1.5 mg/kg/day
  Kidney: degeneration/regeneration, tubules, minimal (incidence): 3
  Kidney: regeneration, tubules, minimal (incidence): 0
Beagle dogs [1]; male dogs, 4.0 mg/kg/day
  Kidney: degeneration/regeneration, tubules, minimal (incidence): 0
  Kidney: regeneration, tubules, minimal (incidence): 0
Beagle dogs [2]; beagle dogs, daily iv infusion at ≥ 0.5 mg/kg/day, males and females
  effect on heart function, ECG parameters (heart rate, PR, QRS, QT and QTc intervals): did not produce any observable effect on heart function
Beagle dogs [2]; dogs, 0.5, 1.5 or 4.0 mg/kg/day 1-h iv infusion, 4 weeks + 4-week recovery
  survival: All animals survived until their scheduled termination
